# Target: T1, human recombinant Yes [a.a. 2–543 (end)] (Homo sapiens, UniProt P07947)
# T1 construct: human recombinant Yes [a.a; 2–543 (end)]; purchased BPS Bioscience 40488
# Test: ADP-Glo kinase assay, inhibition rates of Yes phosphorylation activity (first and second screening)
# Format: biochemical
# Settings: first screening; mean of n = 4 wells; 10 μmol L−1 compound
# Outline: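 ADP-Glo luminescence measured inhibition of human recombinant Yes (a.a. 2–543) phosphorylation activity. In the first screen, each compound ran in 4 wells and inhibition rates were averaged. The second screen retested hits as compounds dissolved from fresh powder.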
# T1 sequence (P07947 2-543): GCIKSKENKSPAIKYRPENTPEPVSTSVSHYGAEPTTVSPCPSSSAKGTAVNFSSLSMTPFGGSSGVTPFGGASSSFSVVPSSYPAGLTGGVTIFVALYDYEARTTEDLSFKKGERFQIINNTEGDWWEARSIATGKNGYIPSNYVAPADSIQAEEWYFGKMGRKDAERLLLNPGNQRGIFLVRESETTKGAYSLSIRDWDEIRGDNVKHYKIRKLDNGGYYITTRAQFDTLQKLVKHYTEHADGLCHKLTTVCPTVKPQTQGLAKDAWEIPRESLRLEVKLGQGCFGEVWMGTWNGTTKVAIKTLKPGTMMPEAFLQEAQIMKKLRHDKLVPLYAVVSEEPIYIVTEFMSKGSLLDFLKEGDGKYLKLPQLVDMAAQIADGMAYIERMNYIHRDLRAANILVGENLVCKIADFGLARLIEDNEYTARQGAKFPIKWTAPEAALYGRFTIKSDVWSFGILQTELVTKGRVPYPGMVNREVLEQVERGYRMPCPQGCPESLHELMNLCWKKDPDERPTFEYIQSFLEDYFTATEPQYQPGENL
row,Compound,First screening IR (inhibition rate) [%]
1,COC1CN(C(=O)c2cn(-c3ccccc3)nc2-c2cccnc2)C1 [Compound Z1203241726],7
2,NCC1CCCS1(=O)=O (centres unmarked) [Compound Z1203586543],6
3,Cc1c[nH]c(=O)n1-c1cccc(NC(=O)C2CC(=O)N(C)C2c2cccnc2)c1 (centres unmarked) [Compound Z1204166998],-13
4,CC1=C(C(=O)N(C)C)C(c2ccc(-c3c(F)cccc3F)o2)NC(=S)N1 (centres unmarked) [Compound Z1211655765],1
5,COC1CCC(N(C)c2ncc(C(=O)N3CCOCC3)cc2Cl)CC1 (centres unmarked) [Compound Z1212734184],-2
6,C[S+]([O-])CCNC(=O)c1ccc(-c2cc(Cl)cc(Cl)c2)s1 (centres unmarked) [Compound Z1220303895],-13
7,COC(=O)Cn1ncc2c(NCCCc3cccc(F)c3)ncnc21 [Compound Z1220626900],-8
8,COc1ccccc1NC(=O)C1=C(C)Nc2nc(SCc3ccccc3)nn2C1c1ccncc1 (centres unmarked) [Compound Z1227522997],-5
9,CC1OC(C)(C)N(C(=O)OC(C)(C)C)C1CNC(=O)c1c(F)cccc1Cl (centres unmarked) [Compound Z1229892973],-2
10,CC(C)(C)OC(=O)N1CC(NC(=O)c2cc3c(F)cc(Br)cc3[nH]2)C1 [Compound Z1231909655],-12
11,CCN(CC)Cc1ccc(C(=O)N2CCC3(C2)NC(=O)NC3=O)cc1 (centres unmarked) [Compound Z1233805260],5
12,CN1CCN(S(=O)(=O)CCS(C)(=O)=O)CC1 [Compound Z1238645651],-2
13,Cc1ccc(-n2cnc3c2CCNC3)cc1 [Compound Z1250487636],-7
14,CC1(C)CN=C(N2CCN(C(=O)c3ccc(C(N)=O)cc3)CC2)S1 [Compound Z1250701189],3
15,CCC1CN(C(=O)OCc2ccccc2)C(CC)CN1C(=O)CCc1cnn(C)c1 (centres unmarked) [Compound Z1251624666],-2
16,Cc1cc(C(=O)Nc2nc3ccccc3n2C2CCCC2)nn1C [Compound Z1251687771],9
17,COC(=O)c1ccc(F)c(S(=O)(=O)N(C)C2C3CCOC3C2(C)C)c1 (centres unmarked) [Compound Z1252759503],3
18,CCN(CCNC(=O)CCN1CCN(c2ccccn2)CC1)c1ccccc1C [Compound Z1255568722],27
19,CCc1cc(CNC(=O)NCc2ccc3cc(OC)ccc3c2)on1 [Compound Z1256754058],-8
20,CC(C)(C)Cc1cc(NC(=O)c2cnn(-c3ccccc3Cl)c2)n[nH]1 [Compound Z1262045135],70
21,CC(C)CCc1nc(CN2C(=O)NC3(CCN(C(=O)OC(C)(C)C)CC3)C2=O)cs1 [Compound Z1262256786],-2
22,CCCCCNS(=O)(=O)CCS(C)(=O)=O [Compound Z1262455598],-9
23,CS1(=O)=NC=C(C(=O)O)C=C1 (centres unmarked) [Compound Z1262519784],52
24,Cc1ccn2c(/C=C/C(=O)c3cccc(N4CCOC4=O)c3)cnc2c1 [Compound Z1263913876],44

row,Compound,First screening IR (inhibition rate) [%]
1,CN(C(=O)c1cccc(NC(=O)c2ccc(Br)o2)c1)c1ccc(C#N)cc1 [Compound Z1269414490],-5
2,CC1CC2CCCCC2N1c1ncnc2c1nnn2-c1ccccc1 (centres unmarked) [Compound Z1270084447],45
3,Fc1ccc(-c2cc(-c3ccc(Cl)cc3)c3ccccc3n2)cc1 [Compound Z1270166647],43
4,Cc1cc(S(=O)(=O)Nc2cc(-c3ccncc3)nn2C)ccc1Br [Compound Z1270579889],54
5,CC1CCCC(C)N(S(=O)(=O)CCCS(C)(=O)=O)C1 (centres unmarked) [Compound Z1271251540],8
6,CC1(C)CCCN(S(=O)(=O)CCCS(C)(=O)=O)CC1 [Compound Z1271277951],-3
7,COCCCCCn1ncc2ccc([N+](=O)[O-])cc21 [Compound Z1271542350],7
8,CS(=O)(=O)C1CSCCN1S(=O)(=O)c1ccc(Br)cc1Cl (centres unmarked) [Compound Z1274438175],-18
9,CC(C)(C)n1cc(C(=O)NCc2ccc(-c3cccnc3)cc2)cn1 [Compound Z1276379731],5
10,Cc1cccc(-c2nc(NC(=O)C3Cc4cc(F)ccc4O3)n[nH]2)n1 (centres unmarked) [Compound Z1279679753],-4
11,O=C(c1cc(Cc2ccccc2)ccc1O)N1CCN(Cc2ccon2)CC1 [Compound Z1285074692],21
12,O=C(NS(=O)(=O)Cc1ccc(Cl)nc1)C1CCc2cn[nH]c2C1 (centres unmarked) [Compound Z1291253354],-13
13,COC(=O)c1cc(S(=O)(=O)Oc2ccc3c(C(C)C)cc(=O)oc3c2)cn1C [Compound Z1309300961],1
14,Fc1ccc(-c2n[nH]c(CNc3cncc(Cl)n3)n2)cc1 [Compound Z1309541011],-11
15,CN1CCC(=O)Nc2cc(C(=O)N(C)C3CCCN(c4ccccc4)C3=O)ccc21 (centres unmarked) [Compound Z1315092412],16
16,CC(C)(C)c1nccc(Nc2cn[nH]c2)n1 [Compound Z1317605702],42
17,Cc1ccc(C(=O)Nc2ccc(OCc3ccccn3)c(F)c2)cn1 [Compound Z1318975474],-2
18,Cc1nc(N(C)C(C)c2ccc([S+](C)[O-])cc2)c2cnn(C)c2n1 (centres unmarked) [Compound Z1324037636],9
19,CC(C)c1nc2n(n1)CC(NC(=O)Nc1cc(-c3ccccc3)ns1)CC2 (centres unmarked) [Compound Z1327803154],17
20,CS(=O)(=O)N(C(=O)c1ccc(OC(F)(F)F)cc1)C1CCC(O)CC1 (centres unmarked) [Compound Z1328888966],2
21,CC(Oc1ccc(N(C)C(N)=O)cc1)c1nnc(-c2cccc(Cl)c2)o1 (centres unmarked) [Compound Z1329202056],-16
22,CCCCNS(=O)(=O)C1=CCS(=O)(=O)C1 [Compound Z1342205464],9
23,O=S1(=O)CC=C(S(=O)(=O)N2CCCC2)C1 [Compound Z1342206502],6
24,Cc1cc(C)n(-c2cncc(NC(C)c3nnc4ccccn34)n2)n1 (centres unmarked) [Compound Z1343207103],5

row,Compound,First screening IR (inhibition rate) [%]
1,c1nc(N2CCCC2c2ccsc2)c2[nH]cnc2n1 (centres unmarked) [Compound Z1343239610],12
2,Cc1ccccc1C1CCCN1c1ncnc2nc[nH]c12 (centres unmarked) [Compound Z1343261311],42
3,Cc1c(C(=O)Nc2cnn(C)c2)c(=O)[nH]c2ccccc12 [Compound Z1343740230],23
4,CC(C)S(=O)(=O)CCS(=O)(=O)Cc1ccc(Cl)cc1 [Compound Z1347350562],-14
5,CC(C)S(=O)(=O)CCS(=O)(=O)Cc1ccccc1 [Compound Z1347350572],2
6,CC(C)S(=O)(=O)CCS(=O)(=O)C(C)c1ccc(F)cc1 (centres unmarked) [Compound Z1347351122],12
7,CC(C)S(=O)(=O)CCS(=O)(=O)CC1CCCCC1 [Compound Z1347351162],-3
8,CC(C)S(=O)(=O)CCS(=O)(=O)c1cccc(Br)c1 [Compound Z1347351377],-2
9,O=C(OCc1ccc(-n2ccnc2)nc1)c1ccc([N+](=O)[O-])cc1 [Compound Z1352068858],7
10,CC1(C)CN(c2nc(-c3ccncc3)nc3c2CCC3)CC[S+]1[O-] (centres unmarked) [Compound Z1396757600],8
11,COC1(C)CC(N(C)C(=O)NC2CCCn3nc(C(C)C)nc32)C1(C)C (centres unmarked) [Compound Z1396774495],-1
12,CC1CN(c2nccnc2C#N)CCN1C(=O)c1cccc(OCc2ccc(F)cc2)c1 (centres unmarked) [Compound Z1401935735],35
13,CCNC(=O)CN(CC)S(=O)(=O)c1cnn(-c2ccc(F)cc2)c1C [Compound Z1403244361],2
14,CCC(C)CS(=O)(=O)N1CCS(=O)(=O)C(C)(C)C1 (centres unmarked) [Compound Z1403432995],11
15,CN(C)c1nc2ccc(NC(=O)c3csc(-c4ccoc4)n3)cc2o1 [Compound Z1404550995],10
16,Nc1ccnc(-c2cncs2)n1 [Compound Z1407063064],-14
17,COc1cccc(-c2cc(-c3ccccc3)c3cc(Br)ccc3n2)c1 [Compound Z1409331244],-16
18,CC(C)N(CC#N)S(=O)(=O)c1ccccc1S(C)(=O)=O [Compound Z1411146082],-35
19,Cc1cc(=O)[nH]c(C(C)Sc2ncn(-c3ccccc3)n2)n1 (centres unmarked) [Compound Z1415883225],34
20,CCCN(Cc1cccnc1OC)C1CCN(C(=O)c2ccccc2)CC1 [Compound Z1415907924],6
21,Cc1nc(-c2ccc(C(=O)OCCCn3cccn3)cc2)n[nH]1 [Compound Z1417129003],10
22,CNc1snc(C)c1C(=O)N1CCC(Oc2ccc(Cl)c(Cl)c2)C1 (centres unmarked) [Compound Z1417711005],-7
23,CN(C)c1ccc(-c2cncc(C(=O)NCC3CC=CCC3)c2)cc1 (centres unmarked) [Compound Z1418841673],21
24,CC(Sc1ncc(CO)n1C)c1cn(-c2ccccc2)nn1 (centres unmarked) [Compound Z1419493384],-8

# Same assay, conditions: second screening, dissolved from fresh powder; n = 4; 10 μmol L−1 compound
row,Compound,Second screening IR (inhibition rate) [%]
1,CC(C)(C)Cc1cc(NC(=O)c2cnn(-c3ccccc3Cl)c2)n[nH]1 [Compound Z1262045135],21
2,CC(C)(C)c1nccc(Nc2cn[nH]c2)n1 [Compound Z1317605702],7

# From paper PMC5607274, “An iterative compound screening contest method for identifying target protein inhibitors using the tyrosine-protein kinase Yes” (Scientific Reports, 2017)
